Measurements taken from US20040181820A1, “Nucleic acids for transforming fish cells and methods for their use” (priority 2001, published 2004).
Read-outs that look alike come from different tables or passages of the source.

Columns and labels:
[1] = test system: epithelioma papulosum cyprini cells (EPC)
Method: In vitro experiments in epithelioma papulosum cyprini cells (EPC) were performed to verify the mechanisin of action of the “suicide vectors”.
Cell transfection assays were made using Lipofectamine Plus following the instructions of the manufacturer (Gibco, BRL, Gaithersburg, Md.). After 48 hours, the cells were treated with 100 μM ZnCl2, an inducer of the MT promoter.
(100 μM). Cells transfected with the different constructs were left uninduced (a,d) or were treated with […] of ZnCl2 at 48 h. post-transfection (b,c,e,f).

[2] = test system: rainbow trout fry; conditions: for mortality of rainbow trout fry: 48 hours, fry 0.8 g
Method: Three different concentrations of ZnCl2 (1 μM, 10 μM, 100 μM) were assayed and analyzed for their toxic effects in rainbow trout fry (0.8 g).
Different concentrations of ZnCl2(10 mM, 5 mM, 2.5 mM, 1 mM, 100 μM, […] and 1 μM) were assayed and observed for their toxic effect in rainbow trout. […] After 30 days post-challenge, the correct dose (10 μM ZnCl2) is added to 90 fish per treatment. After 48 hours, PCR analysis with IHNV G and M specific primers is performed to verify that the DNA vaccines have been totally eliminated from muscle tissue of the vaccinated and Zinc exposed fish.

[3] = test system: EPC cells; conditions: 100, 150, or 200 μM
Method: Persistence of a DNA suicide vector (constructed according to Example 21) in transfected cells was assessed by a reverse transcriptase reaction coupled to PCR (RT-PCR). […] Approximately 24 hours after transfection, the cells were treated with non-toxic concentrations of ZnCl2 (100, 150, or 200 μM). Control cells were left untreated.
At 48 hours after the ZnCl2 addition, total RNA was isolated and an RT-PCR assay using IHNV-G specific primers (5′-[sequence]-3′ provided by SEQ. ID. NO: 2 and 5′-[sequence] [sequence]-3′ provided by SEQ. ID. NO: 3) was performed. PCR conditions were: 94° C. 30 sec, 55° C. 1 min and 72° C. 2 min.

[4] = test system: fish cells; assay: Zinc induction of metallothionein promoter in fish cells (Example 14); type: cell-based; conditions: 100 μM zinc dose
[5] = test system: rainbow trout MT promoter; assay: pMT-CAT reporter in medaka hatchlings with and without zinc (Example 14); type: in vivo; conditions: medaka injected with pMT-CAT plasmid, stimulated with zinc vs unstimulated
Method: The activity of the rainbow trout MT promoter was examined by microinjecting plasmids containing pMT operably linked to the CAT reporter into fertilized eggs of medaka, as described in Inoue, et al., Supra. CAT activities were determined in hatchlings with and without stimulation with zinc. Only small trace levels of CAT activity were detected in unstimulated fish, but CAT activity increased in fish stimulated with zinc.

SMILES	effect of ZnCl2 on untransfected EPC control cells [1]	mortality of rainbow trout fry ([2]; 1 μM and 10 μM in water)	mortality of rainbow trout fry ([2]; 100 μM in water)	concentrations toxic for rainbow trout fry ([2]; fry 1 g)	toxicity of ZnCl2 to transfected EPC cells [3]	toxicity in fish cells [4]	nucleic acid expression mediated by the metallothionein promoter ([4]; fish cells)	CAT activity in hatchlings [5]
[Cl-].[Cl-].[Zn+2] [ZnCl2]	not obviously affected	no mortalities	all fish immersed in 100 μM ZnCl2 had died	higher than 10 μM	non-toxic	–	–	–
[Zn] [zinc]	–	–	–	–	–	without toxicity	induces	increased
